Assay in all cases: FRET (ANAP quenching) nucleotide binding in unroofed membranes
Holding throughout (conditions): Hill fit

One experiment concerns the target T1, Kir6.2*,G334D-GFP + SUR1 (Homo sapiens, UniProt Q14654, G334D).
T1 construct: ANAP labelling is specific and only full-length Kir6.2 is expressed at the cell membrane; expressed in transfected cells; host or cells: HEK-293T
From the text:
(§1) To measure nucleotide binding, cells transfected with Kir6.2*-GFP + SUR1 were briefly sonicated, leaving behind unroofed plasma membrane fragments ([Heuser, 2000]; [Zagotta et al., 2016]; [Puljung et al., 2019]) containing ANAP-labelled KATP channels with the intracellular nucleotide-binding sites exposed to the bath solution. The sample was excited with a 385 nm LED and emitted fluorescence from the membrane fragments was passed through a spectrometer, allowing us to separate ANAP, GFP, and TNP-ATP fluorescence by peak wavelength (Figure 1E,F). As expected from FRET, increasing the concentration of TNP-ATP caused a decrement in the ANAP peak at 472 nm and a concomitant increase in the TNP-ATP peak at 561 nm (Figure 1F). We used the quenching of the ANAP peak as a direct measure of TNP-ATP binding as this signal was specific to KATP. In contrast, the peak TNP-ATP fluorescence may include contributions from both specific and non-specific nucleotide binding, as well as direct excitation of TNP-ATP in solution by the 385 nm excitation light. Due to the sharp cut-off of the GFP emission spectrum at shorter wavelengths, our measurements of peak ANAP fluorescence were unaffected by the presence of the GFP tag on Kir6.2. […]
(§2) Epifluorescence imaging and spectroscopy were performed using a Nikon Eclipse TE2000-U microscope with a 60x water immersion objective (Plan Apo VC, NA = 1.2, Nikon; Kingston upon Thames, UK) or a 100x oil immersion objective (Nikon, Apo TIRF, NA = 1.49). […] Fluorescence spectra were collected by exciting ANAP as above but using a 400 nm long-pass emission filter (ThorLabs), then passing emitted light through an IsoPlane 160 Spectrometer (Princeton Instruments; Trenton, NJ) with a 300 grooves mm^-1 grating. […]
(§3) Unroofed membranes were prepared as described previously ([Heuser, 2000]; [Zagotta et al., 2016]; [Puljung et al., 2019]). […] Unroofed membrane fragments were nearly invisible in bright-field images and identified by their GFP and ANAP fluorescence. […]

A further experiment has as its target Kir6.2*,C166S-GFP + SUR1 (Homo sapiens, UniProt Q14654, C166S). More on the design: ANAP labelling is specific and only full-length Kir6.2 is expressed at the cell membrane; expressed in transfected cells; host or cells: HEK-293T.
Source text: To measure nucleotide binding, cells transfected with Kir6.2*-GFP + SUR1 were briefly sonicated, leaving behind unroofed plasma membrane fragments ([Heuser, 2000]; [Zagotta et al., 2016]; [Puljung et al., 2019]) containing ANAP-labelled KATP channels with the intracellular nucleotide-binding sites exposed to the bath solution. The sample was excited with a 385 nm LED and emitted fluorescence from the membrane fragments was passed through a spectrometer, allowing us to separate ANAP, GFP, and TNP-ATP fluorescence by peak wavelength (Figure 1E,F). As expected from FRET, increasing the concentration of TNP-ATP caused a decrement in the ANAP peak at 472 nm and a concomitant increase in the TNP-ATP peak at 561 nm (Figure 1F). We used the quenching of the ANAP peak as a direct measure of TNP-ATP binding as this signal was specific to KATP. In contrast, the peak TNP-ATP fluorescence may include contributions from both specific and non-specific nucleotide binding, as well as direct excitation of TNP-ATP in solution by the 385 nm excitation light. Due to the sharp cut-off of the GFP emission spectrum at shorter wavelengths, our measurements of peak ANAP fluorescence were unaffected by the presence of the GFP tag on Kir6.2.
as §2, §3
Fluorescence spectra were collected as described above. […]

The next experiment concerns the target Kir6.2-GFP + SUR1 (Homo sapiens, UniProt Q14654). More on the design: full length, fully ANAP-labelled Kir6.2 protein was produced and successfully trafficked to the membrane in the presence of SUR1; expressed in transfected cells; host or cells: HEK-293T.
Source text: as §1, §2, §3

The mark [1] stands for this setting: fraction, read-out: Emax fluorescence quenching.

Where “and” joins values, the source holds several entries; their conditions need not be identical. Equal entries are not always repeated.

T1 sequence (Q14654 whole entry G334D): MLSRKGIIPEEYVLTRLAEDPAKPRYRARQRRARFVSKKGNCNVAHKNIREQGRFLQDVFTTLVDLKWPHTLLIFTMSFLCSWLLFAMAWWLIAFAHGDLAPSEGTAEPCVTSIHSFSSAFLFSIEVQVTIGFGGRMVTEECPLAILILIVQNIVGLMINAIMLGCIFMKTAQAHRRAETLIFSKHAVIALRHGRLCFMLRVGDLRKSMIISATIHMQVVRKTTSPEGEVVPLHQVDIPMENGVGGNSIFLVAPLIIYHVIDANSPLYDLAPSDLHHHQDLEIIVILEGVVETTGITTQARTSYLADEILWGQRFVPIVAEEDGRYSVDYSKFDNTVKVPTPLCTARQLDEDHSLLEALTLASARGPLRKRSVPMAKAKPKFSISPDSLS
T1 sequence (Q09428 whole entry partner): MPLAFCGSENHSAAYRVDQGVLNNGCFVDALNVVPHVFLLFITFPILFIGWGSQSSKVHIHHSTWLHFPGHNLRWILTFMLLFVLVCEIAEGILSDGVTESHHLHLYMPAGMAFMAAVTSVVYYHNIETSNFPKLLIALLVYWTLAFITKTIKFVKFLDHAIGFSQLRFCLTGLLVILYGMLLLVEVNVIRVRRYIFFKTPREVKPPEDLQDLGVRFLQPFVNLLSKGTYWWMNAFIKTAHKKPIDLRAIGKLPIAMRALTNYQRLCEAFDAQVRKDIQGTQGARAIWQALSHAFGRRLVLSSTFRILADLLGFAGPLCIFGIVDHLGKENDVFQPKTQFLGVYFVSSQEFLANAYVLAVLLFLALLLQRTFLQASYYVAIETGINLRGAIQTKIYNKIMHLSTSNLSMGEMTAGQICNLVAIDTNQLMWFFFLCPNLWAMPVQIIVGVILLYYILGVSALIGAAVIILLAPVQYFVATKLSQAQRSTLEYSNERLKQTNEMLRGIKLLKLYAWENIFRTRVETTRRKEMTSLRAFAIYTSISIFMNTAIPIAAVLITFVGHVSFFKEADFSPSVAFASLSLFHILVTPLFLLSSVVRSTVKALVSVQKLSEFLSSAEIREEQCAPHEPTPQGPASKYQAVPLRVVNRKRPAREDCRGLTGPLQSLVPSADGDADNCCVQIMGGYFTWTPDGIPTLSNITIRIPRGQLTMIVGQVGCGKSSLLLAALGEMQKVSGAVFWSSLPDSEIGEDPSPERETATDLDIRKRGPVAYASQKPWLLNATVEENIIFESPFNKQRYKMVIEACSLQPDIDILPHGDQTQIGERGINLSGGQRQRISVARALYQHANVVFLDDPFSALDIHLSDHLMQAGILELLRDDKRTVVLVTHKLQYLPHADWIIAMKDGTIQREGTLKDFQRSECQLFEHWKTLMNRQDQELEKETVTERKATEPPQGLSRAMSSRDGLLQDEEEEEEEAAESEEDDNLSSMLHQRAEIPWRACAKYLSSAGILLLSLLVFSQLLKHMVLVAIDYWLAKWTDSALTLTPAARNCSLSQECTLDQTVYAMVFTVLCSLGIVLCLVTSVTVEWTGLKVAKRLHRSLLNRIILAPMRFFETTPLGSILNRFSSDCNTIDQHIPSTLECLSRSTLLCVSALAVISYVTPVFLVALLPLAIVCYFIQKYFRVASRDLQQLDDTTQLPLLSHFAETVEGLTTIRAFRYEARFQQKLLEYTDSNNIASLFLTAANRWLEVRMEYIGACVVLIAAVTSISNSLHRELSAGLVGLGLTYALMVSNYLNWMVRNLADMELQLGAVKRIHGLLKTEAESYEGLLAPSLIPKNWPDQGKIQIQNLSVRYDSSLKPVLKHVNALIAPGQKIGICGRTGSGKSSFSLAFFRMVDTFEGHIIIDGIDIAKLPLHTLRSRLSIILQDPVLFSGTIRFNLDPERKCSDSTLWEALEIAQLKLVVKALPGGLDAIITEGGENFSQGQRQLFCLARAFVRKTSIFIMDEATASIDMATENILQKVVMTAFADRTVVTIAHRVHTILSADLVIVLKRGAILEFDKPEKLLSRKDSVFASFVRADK
Kir6.2-GFP + SUR1, sequence (Q14654 whole entry): as the sequence (Q14654 whole entry G334D) above, with D334G counted along it
Kir6.2-GFP + SUR1, sequence (Q09428 whole entry partner): as the sequence (Q09428 whole entry partner) above
Kir6.2*,C166S-GFP + SUR1, sequence (Q14654 whole entry C166S, the tested form may be a part): as the sequence (Q14654 whole entry G334D) above, with C166S, D334G counted along it
Kir6.2*,C166S-GFP + SUR1, sequence (Q09428 whole entry partner, the tested form may be a part): as the sequence (Q09428 whole entry partner) above

Usually Emax stands for the size of the effect at its maximum, as opposed to the concentration needed. For orientation: EC50 means the concentration at which the effect is half-maximal. For the molecule `Nc1ncnc2c1ncn2[C@@H]1O[C@H](COP(=O)(O)OP(=O)(O)OP(=O)(O)O)[C@H]2OC3(O[C@H]21)C([N+](=O)[O-])=CC(=[N+]([O-])[O-])C=C3[N+](=O)[O-]` (stereo partly drawn) [TNP-ATP, trinitrophenyl-ATP], the results for the “h (Hill coefficient) fluorescence quenching” value on Kir6.2*,G334D-GFP + SUR1, at Kir6.2*,C166S-GFP + SUR1 and at Kir6.2-GFP + SUR1 were 2.63, 0.92 and 0.82, respectively. Further, the results for the maximal response (Emax) at Kir6.2*,G334D-GFP + SUR1 (setting [1]), at Kir6.2*,C166S-GFP + SUR1 (setting [1]) and at Kir6.2-GFP + SUR1 (setting [1]) were 8%, 96% and 93%, respectively. For the same molecule, the EC50 at Kir6.2*,G334D-GFP + SUR1 (n = 9, read-out: EC50 fluorescence quenching) is 493 µM; at Kir6.2*,C166S-GFP + SUR1 (n = 12, read-out: EC50 fluorescence quenching) it was 32 µM and 31.6 µM; on Kir6.2-GFP + SUR1 (n = 18, read-out: EC50 fluorescence quenching), 25.6 µM and 25.7 µM.

Values taken from PMC7004565, “Nucleotide inhibition of the pancreatic ATP-sensitive K^+ channel explored with patch-clamp fluorometry” (eLife, 2020).
